According to patent US7135307B2, “Gamma three protease” (Merck & Co., Inc., priority 2001, dated 2006):
Where a SMILES comes first, the peptide text is derived from it. [ ]: non-standard residue; d: D form. The star is where a group is joined. Sta = CC(C)C[C@H](N)[C@@H](O)CC(=O)O; Isovaleryl = CC(C)CC(=O)*

What was measured:
Assay type in all cases: biochemical
[1] = test system: γ3 protease; assay: γ3 protease activity in HeLa S3 cell membranes, C100Flag substrate, ECL detection of Aβ
From the text: The source of γ3 protease was a membrane preparation from HeLa S3 cells prepared as in Example 9. The production of the γ3 protease substrate and the conditions for cleavage are described in Example 10. The procedure for determining whether the substrate had been cleaved by γ3 protease was as in Example 6.
(§1) Aβ peptides were detected using a sandwich assay employing an antibody to capture the peptide and an antibody to detect the presence of the peptide. Detection was achieved by using electrochemiluminescence (ECL) (Yang et al., 1994, Bio/Technology 12:193–194; Khorkova et al., 1998, J. Neurosci. Meth. 82:159–166) and an Origen 1.5 Analyzer (Igen Inc., Gaithersburg, Md.).
(§2) Capture was performed using the 4G8 murine monoclonal antibody (Senetek PLC, Maryland Heights, Mo.). The 4G8 murine monoclonal antibody binds an epitope in the Aβ peptide (about amino acids 18–21 of SEQ.ID.NO.:3) that is immediately distal to the α-secretase cleavage site. The 4G8 monoclonal antibody was biotinylated with Biotin-LC-Sulfo-NHS-Ester (Igen Inc., Gaithersburg, Md.).
Detection was achieved using the G2-10 murine monoclonal antibody and the FCA3542 rabbit antibody. […]
The G2-10 and FCA3542 antibodies were ruthenylated with TAG-NHS Ester (Igen Inc., Gaithersburg, Md.). Aβ(x-40) was detected with biotinylated 4G8 and ruthenylated G2-10. Aβ(x-42) was detected with biotinylated 4G8 and ruthenylated FCA3542. […]

[2] = test system: γ-secretase activity associated with presenilins 1 and 2; assay: γ-secretase activity in ES-PBD18 membranes (wild-type mouse embryonic stem cells), generation of Aβ1-40 and Aβ1-42; conditions: 1 μM inhibitor, FIG. 2A, 2B
Description: The presence of γ3 protease activity having a pH optimum of about 6 is clearly seen. […] Again, the presence of γ3 protease activity having a pH optimum of about 6 is clearly seen. The source of γ3 protease was ES-PBD18 membranes. ES-PBD18 membranes were prepared from wild-type mouse embryonic stem cells according to the procedure of Example 11.
(§3) Another method for product detection, employing electrochemiluminescence with a capture antibody and an antibody specific for either Aβ1-40 or Aβ1-42, is described in Example 6 below.
as §1
• 1. […]

[3] = test system: γ-secretase activity associated with presenilin-1/presenilin-2; assay: γ-secretase activity in HeLa S3 cell membranes, C100Flag substrate, ECL detection of Aβ
[4] = test system: γ3 protease; assay: Inhibition of γ3 protease production of Aβ peptides by pepstatin A, ECL detection
From the text: as §3, §1, §2
Detection was achieved using the G2-10 murine monoclonal antibody and the FCA3542 rabbit antibody. The G2-10 murine monoclonal antibody (provided by K. Beyreuther, University of Heidelberg, Germany) binds the C-terminus that is exposed after γ3 protease-mediated cleavage to generate amino acid 40 of the Aβ1-40 peptide. (Ida et al., 1996, J. Biol. Chem. 271:22908–22914). The FCA3542 rabbit antibody (provided by F. Checler, IPMC du CNRS, Valbonne, France) binds the C-terminus that is exposed after γ3 protease-mediated cleavage to generate amino acid 42 of the Aβ1-42 peptide. (Barelli et al., 1997, Mol. Med. 3:695–707.)
The G2-10 and FCA3542 antibodies were ruthenylated with TAG-NHS Ester (Igen Inc., Gaithersburg, Md.). Aβ(x-40) was detected with biotinylated 4G8 and ruthenylated G2-10. Aβ(x-42) was detected with biotinylated 4G8 and ruthenylated FCA3542.

SMILES | susceptibility of γ3 protease activity to inhibition ([1]; general statement) | γ-secretase-type activity remaining in the presence of inhibitor (γ3 protease) ([1]; pH 6.0 (pH optimum for γ3 protease), HeLa S3 membranes, FIG. 1) | inhibition of γ-secretase activity associated with presenilins 1 and 2 [2] | inhibition of the activity of the γ secretase complex containing presenilin-1 or presenilin-2 ([3]; general statement) | block of γ-secretase activity ([3]; pH 7.0 (pH optimum for presenilin-1/presenilin-2 associated γ-secretase), HeLa S3 membranes, FIG. 1) | inhibition of production of Aβ1-40 by γ3 protease ([4]; FIG. 3A) | inhibition of production of Aβ1-42 by γ3 protease ([4]; FIG. 3B) | inhibition of γ3 protease activity ([4]; general statement (aspartyl class protease))
CC(C)C[C@H](NC(=O)[C@H](Cc1ccccc1)C[C@@H](O)[C@H](Cc1ccccc1)NC(=O)OC(C)(C)C)C(=O)N[C@@H](Cc1ccccc1)C(N)=O [L-685,458, {1S-Benzyl-4-R-[1-(1S-carbamoyl-2-phenylethylcarbamoyl)-1S-3-methylbutylcarbamoyl]-2R-hydroxy-5-phenylpentyl}carbamic acid tert-butyl ester] | not susceptible to inhibition | significant γ-secretase activity remains | essentially completely inhibit | inhibited | essentially completely block | – | – | –
CC(C)CC(=O)N[C@H](C(=O)N[C@H](C(=O)N[C@@H](CC(C)C)[C@@H](O)CC(=O)N[C@@H](C)C(=O)N[C@@H](CC(C)C)[C@@H](O)CC(=O)O)C(C)C)C(C)C [pepstatin A] (Isovaleryl-VV[Sta]A[Sta]-OH) | – | – | – | – | – | inhibits | inhibits | inhibited
